According to ChEMBL document CHEMBL3112568, “Synthesis, antifungal activities and molecular docking studies of novel 2-(2,4-difluorophenyl)-2-hydroxy-3-(1H-1,2,4-triazol-1-yl)propyl dithiocarbamates” (2014):
Converted amounts (≈) assume the structure as drawn.

Legend:
Format in all cases: functional
[1] = tested on: Candida albicans; experiment: Antifungal activity against Candida albicans Y0109 after 24 hrs by micro-broth dilution method; details: Y0109, 24 h
[2] = tested on: Nannizzia gypsea; experiment: Antifungal activity against Microsporum gypseum by micro-broth dilution method
[3] = tested on: Candida parapsilosis; experiment: Antifungal activity against Candida parapsilosis by micro-broth dilution method; details: Lodderomyces parapsilosis
[4] = tested on: Aspergillus fumigatus; experiment: Antifungal activity against Aspergillus fumigatus by micro-broth dilution method
[5] = tested on: Trichophyton rubrum; experiment: Antifungal activity against Trichophyton rubrum by micro-broth dilution method
[6] = tested on: Candida albicans; experiment: Antifungal activity against Candida albicans SC5314 after 24 hrs by micro-broth dilution method; details: SC5314, 24 h
[7] = tested on: Nakaseomyces glabratus; experiment: Antifungal activity against Candida glabrata by micro-broth dilution method
[8] = tested on: Cryptococcus neoformans; experiment: Antifungal activity against Cryptococcus neoformans after 72 hrs by micro-broth dilution method

Row | SMILES | MIC80 [1] | MIC80 [2] | MIC80 [3] | MIC80 [4] | MIC80 [5] | MIC80 [6] | MIC80 [7] | MIC80 [8]
1 | OC(CSC(=S)NCc1ccccc1)(Cn1cncn1)c1ccc(F)cc1F (racemic) | 1 µg/mL (≈ 2.38 µM) | 32 µg/mL (≈ 76.1 µM) | 8 µg/mL (≈ 19 µM) | > 64 µg/mL | 0.5 µg/mL (≈ 1.19 µM) | 0.5 µg/mL (≈ 1.19 µM) | 8 µg/mL (≈ 19 µM) | 16 µg/mL (≈ 38 µM)
2 | OCCN(Cc1ccccc1)C(=S)SCC(O)(Cn1cncn1)c1ccc(F)cc1F (racemic) | 0.25 µg/mL (≈ 0.538 µM) | 32 µg/mL (≈ 68.9 µM) | 0.25 µg/mL (≈ 0.538 µM) | > 64 µg/mL | 2 µg/mL (≈ 4.31 µM) | 0.25 µg/mL (≈ 0.538 µM) | ≤ 0.125 µg/mL | 2 µg/mL (≈ 4.31 µM)
3 | O=C1CCN(C(=S)SCC(O)(Cn2cncn2)c2ccc(F)cc2F)CC1 (racemic) | ≤ 0.125 µg/mL | 32 µg/mL (≈ 77.6 µM) | 1 µg/mL (≈ 2.42 µM) | 8 µg/mL (≈ 19.4 µM) | 2 µg/mL (≈ 4.85 µM) | ≤ 0.125 µg/mL | ≤ 0.125 µg/mL | 2 µg/mL (≈ 4.85 µM)
4 | OC(CSC(=S)N1CCN(c2ccccc2)CC1)(Cn1cncn1)c1ccc(F)cc1F (racemic) | 0.25 µg/mL (≈ 0.526 µM) | 2 µg/mL (≈ 4.21 µM) | 0.25 µg/mL (≈ 0.526 µM) | 4 µg/mL (≈ 8.41 µM) | 2 µg/mL (≈ 4.21 µM) | 0.25 µg/mL (≈ 0.526 µM) | ≤ 0.125 µg/mL | ≤ 0.125 µg/mL
5 | OC(CSC(=S)N1CCN(Cc2ccccc2)CC1)(Cn1cncn1)c1ccc(F)cc1F (racemic) | ≤ 0.125 µg/mL | 2 µg/mL (≈ 4.08 µM) | 1 µg/mL (≈ 2.04 µM) | 4 µg/mL (≈ 8.17 µM) | 2 µg/mL (≈ 4.08 µM) | ≤ 0.125 µg/mL | 0.25 µg/mL (≈ 0.511 µM) | 0.25 µg/mL (≈ 0.511 µM)
6 | OC(CSC(=S)N1CCN(c2ccccc2F)CC1)(Cn1cncn1)c1ccc(F)cc1F (racemic) | 0.5 µg/mL (≈ 1.01 µM) | > 64 µg/mL | 2 µg/mL (≈ 4.05 µM) | > 64 µg/mL | 1 µg/mL (≈ 2.03 µM) | 0.5 µg/mL (≈ 1.01 µM) | 0.5 µg/mL (≈ 1.01 µM) | 0.5 µg/mL (≈ 1.01 µM)
7 | OC(CSC(=S)N1CCN(c2cccc(F)c2)CC1)(Cn1cncn1)c1ccc(F)cc1F (racemic) | ≤ 0.125 µg/mL | 4 µg/mL (≈ 8.1 µM) | 0.5 µg/mL (≈ 1.01 µM) | 8 µg/mL (≈ 16.2 µM) | 0.5 µg/mL (≈ 1.01 µM) | ≤ 0.125 µg/mL | 0.25 µg/mL (≈ 0.507 µM) | ≤ 0.125 µg/mL
8 | OC(CSC(=S)N1CCN(c2ccc(F)cc2)CC1)(Cn1cncn1)c1ccc(F)cc1F (racemic) | ≤ 0.125 µg/mL | 2 µg/mL (≈ 4.05 µM) | 0.25 µg/mL (≈ 0.507 µM) | 16 µg/mL (≈ 32.4 µM) | 1 µg/mL (≈ 2.03 µM) | 0.25 µg/mL (≈ 0.507 µM) | 0.25 µg/mL (≈ 0.507 µM) | ≤ 0.125 µg/mL
9 | OC(CSC(=S)N1CCN(c2ccccc2Cl)CC1)(Cn1cncn1)c1ccc(F)cc1F (racemic) | ≤ 0.125 µg/mL | 2 µg/mL (≈ 3.92 µM) | 0.5 µg/mL (≈ 0.98 µM) | 8 µg/mL (≈ 15.7 µM) | 1 µg/mL (≈ 1.96 µM) | ≤ 0.125 µg/mL | 0.5 µg/mL (≈ 0.98 µM) | ≤ 0.125 µg/mL
10 | OC(CSC(=S)N1CCN(c2ccc(Cl)cc2)CC1)(Cn1cncn1)c1ccc(F)cc1F (racemic) | ≤ 0.125 µg/mL | 4 µg/mL (≈ 7.84 µM) | 0.5 µg/mL (≈ 0.98 µM) | 16 µg/mL (≈ 31.4 µM) | 1 µg/mL (≈ 1.96 µM) | ≤ 0.125 µg/mL | 0.25 µg/mL (≈ 0.49 µM) | ≤ 0.125 µg/mL
11 | Cc1ccccc1N1CCN(C(=S)SCC(O)(Cn2cncn2)c2ccc(F)cc2F)CC1 (racemic) | ≤ 0.125 µg/mL | 16 µg/mL (≈ 32.7 µM) | 1 µg/mL (≈ 2.04 µM) | > 64 µg/mL | 2 µg/mL (≈ 4.08 µM) | 0.25 µg/mL (≈ 0.511 µM) | 0.5 µg/mL (≈ 1.02 µM) | 0.5 µg/mL (≈ 1.02 µM)
12 | Cc1cccc(N2CCN(C(=S)SCC(O)(Cn3cncn3)c3ccc(F)cc3F)CC2)c1C (racemic) | 0.5 µg/mL (≈ 0.993 µM) | > 64 µg/mL | 1 µg/mL (≈ 1.99 µM) | > 64 µg/mL | 1 µg/mL (≈ 1.99 µM) | 0.5 µg/mL (≈ 0.993 µM) | 0.5 µg/mL (≈ 0.993 µM) | 0.5 µg/mL (≈ 0.993 µM)
13 | OC(CSC(=S)N1CCN(c2cccc(Cl)c2Cl)CC1)(Cn1cncn1)c1ccc(F)cc1F (racemic) | ≤ 0.125 µg/mL | 16 µg/mL (≈ 29.4 µM) | 1 µg/mL (≈ 1.84 µM) | > 64 µg/mL | 0.5 µg/mL (≈ 0.918 µM) | 0.5 µg/mL (≈ 0.918 µM) | 0.5 µg/mL (≈ 0.918 µM) | 0.5 µg/mL (≈ 0.918 µM)
14 | COc1cccc(N2CCN(C(=S)SCC(O)(Cn3cncn3)c3ccc(F)cc3F)CC2)c1 (racemic) | ≤ 0.125 µg/mL | 4 µg/mL (≈ 7.91 µM) | 0.5 µg/mL (≈ 0.989 µM) | 16 µg/mL (≈ 31.6 µM) | 1 µg/mL (≈ 1.98 µM) | ≤ 0.125 µg/mL | 0.25 µg/mL (≈ 0.494 µM) | 0.25 µg/mL (≈ 0.494 µM)
15 | COc1ccc(N2CCN(C(=S)SCC(O)(Cn3cncn3)c3ccc(F)cc3F)CC2)cc1 (racemic) | ≤ 0.125 µg/mL | 2 µg/mL (≈ 3.96 µM) | 0.25 µg/mL (≈ 0.494 µM) | 8 µg/mL (≈ 15.8 µM) | 1 µg/mL (≈ 1.98 µM) | ≤ 0.125 µg/mL | ≤ 0.125 µg/mL | 0.25 µg/mL (≈ 0.494 µM)
16 | OC(CSC(=S)N1CCN(c2cccc(C(F)(F)F)c2)CC1)(Cn1cncn1)c1ccc(F)cc1F (racemic) | ≤ 0.125 µg/mL | 2 µg/mL (≈ 3.68 µM) | 0.5 µg/mL (≈ 0.92 µM) | 8 µg/mL (≈ 14.7 µM) | 1 µg/mL (≈ 1.84 µM) | ≤ 0.125 µg/mL | 0.25 µg/mL (≈ 0.46 µM) | 0.25 µg/mL (≈ 0.46 µM)

Results, then the compound that gave them:

Row | MIC80 [1] | MIC80 [2] | MIC80 [3] | MIC80 [4] | MIC80 [5] | MIC80 [6] | MIC80 [7] | MIC80 [8] | SMILES
17 | ≤ 0.125 µg/mL | 4 µg/mL (≈ 10.3 µM) | 0.5 µg/mL (≈ 1.29 µM) | 8 µg/mL (≈ 20.7 µM) | 8 µg/mL (≈ 20.7 µM) | ≤ 0.125 µg/mL | ≤ 0.125 µg/mL | 0.25 µg/mL (≈ 0.647 µM) | CCN(CC)C(=S)SCC(O)(Cn1cncn1)c1ccc(F)cc1F (racemic)
18 | ≤ 0.125 µg/mL | 2 µg/mL (≈ 5.58 µM) | 0.5 µg/mL (≈ 1.39 µM) | 8 µg/mL (≈ 22.3 µM) | 0.5 µg/mL (≈ 1.39 µM) | ≤ 0.125 µg/mL | ≤ 0.125 µg/mL | 0.5 µg/mL (≈ 1.39 µM) | CN(C)C(=S)SCC(O)(Cn1cncn1)c1ccc(F)cc1F (racemic)
19 | 0.25 µg/mL (≈ 0.595 µM) | 2 µg/mL (≈ 4.76 µM) | 32 µg/mL (≈ 76.1 µM) | 64 µg/mL (≈ 152 µM) | 2 µg/mL (≈ 4.76 µM) | 0.5 µg/mL (≈ 1.19 µM) | 0.5 µg/mL (≈ 1.19 µM) | 1 µg/mL (≈ 2.38 µM) | CN(C(=S)SCC(O)(Cn1cncn1)c1ccc(F)cc1F)c1ccccc1 (racemic)
20 | 0.25 µg/mL (≈ 0.575 µM) | > 64 µg/mL | 0.5 µg/mL (≈ 1.15 µM) | 16 µg/mL (≈ 36.8 µM) | > 64 µg/mL | 0.25 µg/mL (≈ 0.575 µM) | 0.25 µg/mL (≈ 0.575 µM) | 1 µg/mL (≈ 2.3 µM) | CN(Cc1ccccc1)C(=S)SCC(O)(Cn1cncn1)c1ccc(F)cc1F (racemic)
21 | ≤ 0.125 µg/mL | 16 µg/mL (≈ 41.2 µM) | ≤ 0.125 µg/mL | > 64 µg/mL | 4 µg/mL (≈ 10.3 µM) | ≤ 0.125 µg/mL | ≤ 0.125 µg/mL | 8 µg/mL (≈ 20.6 µM) | CN(CCO)C(=S)SCC(O)(Cn1cncn1)c1ccc(F)cc1F (racemic)
22 | 8 µg/mL (≈ 19.1 µM) | 1 µg/mL (≈ 2.39 µM) | > 64 µg/mL | > 64 µg/mL | 1 µg/mL (≈ 2.39 µM) | 8 µg/mL (≈ 19.1 µM) | 0.25 µg/mL (≈ 0.597 µM) | 64 µg/mL (≈ 153 µM) | OCCN(CCO)C(=S)SCC(O)(Cn1cncn1)c1ccc(F)cc1F (racemic)
23 | ≤ 0.125 µg/mL | 8 µg/mL (≈ 20.1 µM) | 0.5 µg/mL (≈ 1.25 µM) | 16 µg/mL (≈ 40.2 µM) | 8 µg/mL (≈ 20.1 µM) | ≤ 0.125 µg/mL | ≤ 0.125 µg/mL | ≤ 0.125 µg/mL | OC(CSC(=S)N1CCCCC1)(Cn1cncn1)c1ccc(F)cc1F (racemic)
24 | ≤ 0.125 µg/mL | 8 µg/mL (≈ 20 µM) | 0.25 µg/mL (≈ 0.624 µM) | 16 µg/mL (≈ 40 µM) | 8 µg/mL (≈ 20 µM) | ≤ 0.125 µg/mL | ≤ 0.125 µg/mL | 0.25 µg/mL (≈ 0.624 µM) | OC(CSC(=S)N1CCOCC1)(Cn1cncn1)c1ccc(F)cc1F (racemic)
25 | ≤ 0.125 µg/mL | 4 µg/mL (≈ 9.67 µM) | 0.25 µg/mL (≈ 0.605 µM) | 8 µg/mL (≈ 19.3 µM) | 1 µg/mL (≈ 2.42 µM) | ≤ 0.125 µg/mL | ≤ 0.125 µg/mL | 0.25 µg/mL (≈ 0.605 µM) | CN1CCN(C(=S)SCC(O)(Cn2cncn2)c2ccc(F)cc2F)CC1 (racemic)
